Measurements as given in patent US10357496B2, “Methods, formulations, and kits for rapidly repleting folate levels in women” (SOUTH ALABAMA MEDICAL SCIENCE FOUNDATION, priority 2011, dated 2019).
Values belong to the molecule of their own block, whether it stands above or below them.

Key:
[1] = tested on: mice homozygous for loss of folate binding protein 1; settings: 10.75 to 43.0 micromoles/kg/day; untreated mice died in utero; optimal between days E7-E9; cited from earlier work
[2] = cited from earlier work
[3] = Method: A study of the rate of increase of serum folate with 5-methyl-6S-tetrahydrofolate (6S-5-MTHF) was performed with women of child bearing age (final range: 20 to 44 years old). Volunteers were screened for fasting serum folate, and the lower quintile enrolled (n=21 participants). On the first day, a baseline fasting blood sample was obtained using a serum separator tube, and then a 7.5 mg (16.3 micromoles) oral dose of 6S-5-MTHF along with 0.5 mg of cyanocobalamin was administered. After 24 hours (day 2) and again after 48 hours (day 3) fasting blood samples were withdrawn, and the same doses of 6S-5-MTHF and vitamin B12 were administered. At 72 hours (day 4) and 96 hours (day 5), further blood samples were withdrawn, but without administration of vitamins for the first 10 Subjects.
These subjects returned on days 12 and 19 to provide serum samples. Compliance was established by counting the excess tablets at the end of the study.
The serum samples were frozen and then initially analyzed for total folate using the Immulite 2000 competitive binding assay, and later by microbiological assay using L. rhamnosus. Serum B12 was determined using the Immulite 2000 assay. This study and the following trials B and C were performed with approval by the Institutional Review Board of the University of South Alabama.

[4] = Trial B
Method: (§1) The 21 volunteers with a value below 25 nM serum folate at screening ranged between 20 to 44 years old.

[5] = Trial B; microbiological assay
Method: as §1

[6] = type: in vivo, women
[7] = tested on: recurrent NTD; settings: 4 mg/day; cited from earlier work
[8] = tested on: NTD; settings: 400 μg/d, cited from earlier work
[9] = cited from earlier work; remark: listed apart in the source
[10] = tested on: heart defects; settings: periconceptional use; cited from earlier work
[11] = tested on: cleft lip/palate; settings: periconceptual administration; cited from earlier work
[12] = Trial A: serum B12 by Immulite 2000 assay; type: in vivo, women; settings: three daily 0.5 mg doses, by 72 hours, subjects (n=6) with screening values below 330 pg/mL
Method: Serum B12 was determined using the Immulite 2000 assay.
The average vitamin B12 levels specifically for those subjects (n=6) with screening values below 330 pg/mL are shown in FIG. 2 (dotted line). By 72 hours after initiation of the three doses, serum B12 increased on average by about 80 pg/mL, and then fell slightly. Levels below 200 pg/mL are considered to be deficient, and those between 200 and 350 pg/mL are generally considered to be low-normal. Data beyond day 5 are not available for this trial, since only one of those with sub-optimal B12 status volunteered to continue.

[13] = Trial B: serum B12; type: in vivo, women
Source text: It is believed that this may be due to uptake of the plasma B12 into the tissues of the deficient or mildly deficient subjects. None the less, by day 12 nearly half of the subjects were still in the normal range.

[14] = after 4 weeks of 800 μg (Brämswig et al.)

Molecule: Nc1nc2c(c(=O)[nH]1)N(C=O)C(CNc1ccc(C(=O)N[C@@H](CCC(=O)O)C(=O)O)cc1)CN2 (some centres unmarked) [5-formyl-tetrahydrofolate]
survival and malformations of knockout mice [1]: some of these mice survived, but were subject to malformations

Molecule: CN1c2c(nc(N)[nH]c2=O)NCC1CNc1ccc(C(=O)N[C@@H](CCC(=O)O)C(=O)O)cc1 (some centres unmarked) [5-methyltetrahydrofolate]
time to reach plateau in the plasma ([2]; 400 μg/d, young women): 12 weeks
survival and malformations of knockout mice [1]: some of these mice survived, but were subject to malformations

Molecule: CN1c2c(nc(N)[nH]c2=O)NC[C@@H]1CNc1ccc(C(=O)N[C@@H](CCC(=O)O)C(=O)O)cc1 [6S-5-MTHF, 5-methyl-6S-tetrahydrofolate]
number of subjects not reaching greater than 37 nM serum total folate by the second day ([3]; Trial A): three
percent of subjects not reaching greater than 37 nM serum total folate by the second day ([3]; Trial A): 15%
total folate of all subjects by the fourth day ([3]; in vivo): above 55 nM
total folate of all subjects by the third day ([3]; in vivo): above 44 nM
average serum level maintained over the next two weeks ([4]; 0.8 mg/d 6S-5-MTHF starting on day 4): higher than 66 nM
average serum 5-MTHF, day 5 ([4]; 48 hours after last 7.5 mg dose, 0.8 mg/d maintenance from day 4): 74 nM
average serum 5-MTHF, day 4 ([4]; five 7.5 mg doses every 12 hours, 24 hours after last 7.5 mg dose): 98 nM
total folate: women below 50 nM during the study [5]: only a single person was ever below 50 nM

The next lines start with results.

highest serum total folate in any measurement, single slow-responding subject ([6]; female, human, in vivo): ≤ 32 nM
Molecule: Nc1nc2ncc(CNc3ccc(C(=O)N[C@@H](CCC(=O)O)C(=O)O)cc3)nc2c(=O)[nH]1 [folic acid]
number of subjects below 44 nM total folate by the third day ([6]; Trial C): 9
number of subjects below 50 nM total folate by the fourth day ([6]; Trial C): 10
percent of subjects failing to achieve greater than 37 nM serum total folate by the second day ([6]; Trial C): 40%
number of subjects failing to achieve greater than 37 nM serum total folate by the second day ([6]; Trial C, of 20): 8
recurrent NTD prevented compared to the control group [7]: 72%
NTD cases after treatment, southern region ([8]; 10 per 10,000 births before intervention): 6 per 10,000
NTD cases after treatment, northern region ([8]; 48 per 10,000 births before intervention): 10 per 10,000
average plasma folate level [2, 14]: 50 nM
average red cell folate level [9, 14]: 919 nM
time of treatment to elevate red cell concentrations to 906 nM ([9]; daily dose of 800 μg): 4.2±3.5 weeks
decrease in the prevalence of heart defects [10]: 20%
reduction in recurrence of orofacial clefts (meta-analysis) [11]: two thirds

average increase of serum B12 [12]: about 80 pg/mL
half life of fall of serum B12 after discontinuation ([13]; Trial B, after three daily 1.0 mg doses, approximate exponential): about 2%
Molecule: cyanocobalamin
rate of increase of serum B12 ([13]; Trial B three daily 1.0 mg doses versus Trial A 0.5 mg doses): considerably greater than observed with the 0.5 mg doses
subjects with serum B12 still in the normal range by day 12 ([13]; Trial B, after three daily 1.0 mg doses): nearly half
subjects with serum B12 in the normal range by day 4 ([13]; Trial B, three daily 1.0 mg doses): 88%
